Laboratory results taken from ChEMBL document CHEMBL3769356, “Rational design in search for 5-phenylhydantoin selective 5-HT7R antagonists. Molecular modeling, synthesis and biological evaluation” (Eur J Med Chem, 2016).
Calls of active or inactive are those of the source. The calls are words filed in the database; no cut-off is given here.

What was measured:
[1] = biological target: CYP3A4 (Homo sapiens, UniProt P08684); assay: Inhibition of recombinant human CYP3A4 assessed as remaining activity at 25 uM by luminescence -based microplate reader assay; format: ADME; conditions: read-out: Activity
[2] = tested on: Liver microsome; assay: Retention time of the compound in recombinant human liver microsomes treated with 5-(4-fluorophenyl)-3-(2-hydroxy-3-(4-(2-methoxyphenyl)piperazin-1-yl)propyl)-5-methylimidazolidine-2,4-dione at 50 uM after 120 mins by UPLC-MS/MS analysis; format: ADME; conditions: 2 h
[3] = tested on: Liver microsome; assay: Drug level in recombinant human liver microsomes treated with 5-(4-fluorophenyl)-3-(2-hydroxy-3-(4-(2-methoxyphenyl)piperazin-1-yl)propyl)-5-methylimidazolidine-2,4-dione at 50 uM after 120 mins by UPLC-MS/MS analysis; format: ADME; conditions: 2 h
[4] = biological target: T1, 5-hydroxytryptamine receptor 7 (Homo sapiens, UniProt P34969); format: functional, cell-based, HEK293
[5] = biological target: T1, 5-hydroxytryptamine receptor 7; assay: Displacement of [3H]-5-CT from human 5-HT7 receptor expressed in HEK293 cells; format: cell-based
[6] = biological target: T1, 5-hydroxytryptamine receptor 7; assay: Agonist activity at human 5-HT7 receptor expressed in HEK293 cells assessed as increase in cAMP level at 10 uM after 15 mins by HTRF assay; format: functional, cell-based
[7] = species: Homo sapiens; assay: Selectivity ratio of Ki for human dopamine D2L receptor to Ki for human 5-HT7 receptor
[8] = biological target: D(2) dopamine receptor (Homo sapiens, UniProt P14416); assay: Displacement of [3H]-Raclopride from human dopamine D2L receptor expressed in HEK293 cells; format: cell-based
[9] = species: Homo sapiens; assay: Selectivity ratio of Ki for human 5-HT1A receptor to Ki for human 5-HT7 receptor
[10] = biological target: T2, 5-hydroxytryptamine receptor 1A (Homo sapiens, UniProt P08908); assay: Displacement of [3H]-8-OH-DPAT from human 5-HT1A receptor expressed in HEK293 cells; format: cell-based
T2 sequence (P08908 whole entry): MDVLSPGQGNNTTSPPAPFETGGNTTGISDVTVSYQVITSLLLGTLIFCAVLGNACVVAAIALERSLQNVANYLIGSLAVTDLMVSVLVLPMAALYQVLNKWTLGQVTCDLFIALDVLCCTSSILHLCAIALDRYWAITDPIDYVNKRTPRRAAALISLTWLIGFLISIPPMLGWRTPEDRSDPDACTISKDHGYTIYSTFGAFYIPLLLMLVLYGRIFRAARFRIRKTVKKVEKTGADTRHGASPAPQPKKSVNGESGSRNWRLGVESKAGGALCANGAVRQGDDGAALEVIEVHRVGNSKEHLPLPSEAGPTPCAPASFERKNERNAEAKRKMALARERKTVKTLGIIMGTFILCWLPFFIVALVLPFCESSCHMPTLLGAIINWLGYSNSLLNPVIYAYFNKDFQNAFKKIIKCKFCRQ

[11] = biological target: T1, 5-hydroxytryptamine receptor 7; assay: Antagonist activity at human 5-HT7 receptor expressed in HEK293 cells assessed as inhibition of 5-CT-induced cAMP production at 10 uM preincubated for 15 mins followed by 5-CT addition measured after 15 mins by HTRF assay; format: functional, cell-based

Chain of D(2) dopamine receptor (P14416 whole entry): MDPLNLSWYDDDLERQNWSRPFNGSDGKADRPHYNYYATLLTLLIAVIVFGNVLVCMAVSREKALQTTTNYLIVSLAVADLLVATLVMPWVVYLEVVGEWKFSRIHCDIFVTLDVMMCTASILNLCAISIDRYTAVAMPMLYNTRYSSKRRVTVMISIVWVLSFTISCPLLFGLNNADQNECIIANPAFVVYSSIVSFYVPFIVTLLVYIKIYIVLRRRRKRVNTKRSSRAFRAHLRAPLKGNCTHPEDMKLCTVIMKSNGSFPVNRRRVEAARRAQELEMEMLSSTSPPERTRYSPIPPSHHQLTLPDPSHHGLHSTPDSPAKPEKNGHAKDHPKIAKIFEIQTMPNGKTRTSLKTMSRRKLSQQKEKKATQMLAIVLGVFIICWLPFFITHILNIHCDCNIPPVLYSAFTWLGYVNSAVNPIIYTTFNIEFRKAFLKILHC
T1 sequence (P34969 whole entry): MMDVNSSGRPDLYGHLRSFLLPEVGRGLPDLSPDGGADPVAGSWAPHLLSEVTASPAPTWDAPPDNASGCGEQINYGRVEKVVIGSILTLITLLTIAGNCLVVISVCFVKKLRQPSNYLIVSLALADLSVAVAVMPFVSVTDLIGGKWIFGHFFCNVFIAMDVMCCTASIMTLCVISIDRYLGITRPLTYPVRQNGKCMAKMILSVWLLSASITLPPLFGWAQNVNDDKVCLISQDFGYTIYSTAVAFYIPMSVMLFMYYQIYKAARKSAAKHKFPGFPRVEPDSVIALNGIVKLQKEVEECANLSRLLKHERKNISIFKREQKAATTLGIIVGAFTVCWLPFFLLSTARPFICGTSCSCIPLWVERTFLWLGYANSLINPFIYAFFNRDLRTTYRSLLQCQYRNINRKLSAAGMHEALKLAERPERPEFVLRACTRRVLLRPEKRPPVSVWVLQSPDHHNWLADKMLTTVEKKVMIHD
Chain of CYP3A4 (P08684 whole entry): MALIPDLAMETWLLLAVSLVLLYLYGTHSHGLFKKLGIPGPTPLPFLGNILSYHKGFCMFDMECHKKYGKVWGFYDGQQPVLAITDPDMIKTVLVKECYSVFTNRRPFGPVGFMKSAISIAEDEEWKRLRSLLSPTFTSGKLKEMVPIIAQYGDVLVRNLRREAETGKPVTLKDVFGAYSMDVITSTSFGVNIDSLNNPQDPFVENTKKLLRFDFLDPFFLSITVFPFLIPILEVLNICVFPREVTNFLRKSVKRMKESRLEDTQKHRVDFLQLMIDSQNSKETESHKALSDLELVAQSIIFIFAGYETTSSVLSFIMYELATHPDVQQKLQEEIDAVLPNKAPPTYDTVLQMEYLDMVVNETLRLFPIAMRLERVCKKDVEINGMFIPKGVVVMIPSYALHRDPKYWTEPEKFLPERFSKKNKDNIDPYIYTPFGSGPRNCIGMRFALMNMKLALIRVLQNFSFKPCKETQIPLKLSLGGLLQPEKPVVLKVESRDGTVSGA

Row | activity at 25 µM [1] [%] | Retention_time [2] [min] | Drug metabolism [3] | IC50 [4] [nM] | Ki [5] [nM] | Activity [6] | Ratio Ki [7] | Ki [8] [nM] | Ratio Ki [9] | Ki [10] [nM] | inhibition [11] [%] | Compound
1 | 50 | – | – | – | – | – | – | – | – | – | – | COc1ccccc1N1CCN(CC(O)CN2C(=O)NC(C)(c3ccc(F)cc3)C2=O)CC1 (centres undefined)
2 | – | 3.77 | metabolite_detected | – | – | – | – | – | – | – | – | CC1(c2ccc(F)cc2)NC(=O)N(CC(O)CN2CCN(c3ccccc3O)CC2)C1=O (centres undefined)
3 | – | – | – | 81 | 10 | inactive | 13 | 127 | 10 | 98 | – | CCOc1ccccc1N1CCN(CC(O)CN2C(=O)NC(C)(c3ccc(F)cc3)C2=O)CC1 (centres undefined)
4 | – | – | – | – | 47 | inactive | 18 | 839 | 8 | 397 | 30 | CC1(c2ccc(F)cc2)NC(=O)N(CC(O)CN2CCN(c3ccccc3Cl)CC2)C1=O (centres undefined)
5 | – | – | – | – | 908 | inactive | 5 | 4260 | 6 | 5300 | 16 | CC1(c2ccc(F)cc2)NC(=O)N(CC(O)CN2CCN(c3ccc(Cl)cc3)CC2)C1=O (centres undefined)
6 | – | – | – | – | 234 | inactive | 7 | 1710 | 7 | 1650 | 6 | CC1(c2ccc(F)cc2)NC(=O)N(CC(O)CN2CCN(c3ccccc3F)CC2)C1=O (centres undefined)
7 | – | – | – | – | 1190 | inactive | 4 | 6790 | 8 | 9170 | 9 | CC1(c2ccc(F)cc2)NC(=O)N(CC(O)CN2CCN(c3ccc(F)cc3F)CC2)C1=O (centres undefined)
8 | – | – | – | 1390 | 17 | inactive | 18 | 302 | 3 | 59 | – | CC1(c2ccc(F)cc2)NC(=O)N(CC(O)CN2CCN(c3cccc(Cl)c3Cl)CC2)C1=O (centres undefined)
9 | – | – | – | – | 177 | inactive | 13 | 2260 | 6 | 1000 | 19 | Cc1ccc(N2CCN(CC(O)CN3C(=O)NC(C)(c4ccc(F)cc4)C3=O)CC2)cc1C (centres undefined)
10 | – | – | – | 1810 | – | inactive | 3 | – | 71 | – | – | CC1(c2ccc(F)cc2)NC(=O)N(CC(O)CN2CCN(C(c3ccccc3)c3ccccc3)CC2)C1=O (centres undefined)
11 | – | – | – | – | 837 | inactive | 7 | 5640 | 8 | 6860 | 12 | CC1(c2ccc(F)cc2)NC(=O)N(CC(O)CN2CCN(c3ccc(F)cc3)CC2)C1=O (centres undefined)
12 | – | – | – | 5940 | 89 | inactive | 58 | 5190 | 33 | 2970 | – | COc1cccc(N2CCN(CC(O)CN3C(=O)NC(C)(c4ccc(F)cc4)C3=O)CC2)c1 (centres undefined)
13 | – | – | – | 343 | 14 | inactive | 67 | 931 | 23 | 319 | – | CC1(c2ccc(F)cc2)NC(=O)N(CC(O)CN2CCN(c3ccccc3C#N)CC2)C1=O (centres undefined)
14 | – | – | – | – | 223 | inactive | 13 | 2910 | 12 | 2730 | 18 | CC1(c2ccc(F)cc2)NC(=O)N(CC(O)CN2CCN(c3ccccc3)CC2)C1=O (centres undefined)
15 | – | – | – | 24000 | 141 | inactive | 14 | 1980 | 6 | 821 | – | CC1(c2ccc(F)cc2)NC(=O)N(CC(O)CN2CCN(c3ccc(Cl)c(Cl)c3)CC2)C1=O (centres undefined)
16 | – | – | – | 1010 | 56 | inactive | 32 | 1810 | 23 | 1300 | – | Cc1ccc(C)c(N2CCN(CC(O)CN3C(=O)NC(C)(c4ccc(F)cc4)C3=O)CC2)c1 (centres undefined)

Row | Compound | activity at 25 µM [1] [%] | Retention_time [2] [min] | Drug metabolism [3] | IC50 [4] [nM] | Ki [5] [nM] | Activity [6] | Ratio Ki [7] | Ki [8] [nM] | Ratio Ki [9] | Ki [10] [nM] | inhibition [11] [%]
17 | NCCc1c[nH]c2ccc(C(N)=O)cc12 | – | – | – | – | – | Active | – | – | – | – | –
